In BindingDB's records for doi:10.1021/jm9911581 (Cnrs Umr 8532, 2000):

System: HIV-1 integrase catalytic core (disintegration assay)
Experiment: Compound was tested in vitro to inhibit human immuno virus-1 (HIV-1) using enzymatic disintegration assay.

Row | IC50 | Compound
1 | 2.7 µM | O=C(O)c1cc(/C=C/c2ccc3ccc(C(=O)O)c(O)c3n2)ccc1O [2-(3-carboxy-4-hydroxystyryl)-8-hydroxyquinoline-7-carboxylic acid]
2 | > 100 µM | Oc1cccc2ccc(/C=C/c3ccccc3)nc12 [2-Styryl-quinolin-8-ol]
3 | 4.2 µM | O=C(O)c1ccc2ccc(/C=C/c3ccc(O)cc3)nc2c1O [8-hydroxy-2-(4-hydroxystyryl)quinoline-7-carboxylic acid]
4 | 3.4 µM | O=C(O)c1ccc2ccc(/C=C/c3ccccc3)nc2c1O [8-hydroxy-2-styrylquinoline-7-carboxylic acid]
